From patent US12398138B2, “FGFR inhibitor compound in solid form and preparation method therefor” (CSPC ZHONGQI PHARMACEUTICAL TECHNOLOGY (SHIJIAZHUANG) CO., …, priority 2019, dated 2025) come the findings set out here.

Where two headings read alike, the source gives them in different places.

The target of one data set is T1, human FGFR1 (Homo sapiens, UniProt P11362).
T1 construct: purchased Invitrogen PV3146
Description: 33P isotope-labeled kinase activity assay, wild type FGFR1. Format: biochemical. Conditions: ATP 5 μM. On the procedure: (§1) IC50 was determined by using ^33P isotope-labeled kinase activity assay (Reaction Biology Corp), to evaluate the inhibitory ability of the test compound against human FGFR1 and FGFR4.
(§2) Buffer conditions: 20 mM Hepes (pH 7.5), 10 mM MgCl2, 1 mM EGTA, 0.02% Brij35, 0.02 mg/mL BSA, 0.1 mM Na3VO4, 2 mM DTT, and 1% DMSO.
(§3) Test procedures: At room temperature, the compound of Formula (I) was dissolved in DMSO to prepare a 10 mM solution. The substrate was dissolved in a freshly prepared buffer, and added with the test kinase and well mixed. By using acoustic technology (Echo 550), the solution of the test compound in DMSO was added into the above well-mixed reaction solution, to allow a compound concentration in reaction solution to be 10 μM, 3.33 μM, 1.11 μM, 0.370 μM, 0.123 μM, 41.2 nM, 13.7 nM, 4.57 nM, 1.52 nM, and 0.508 nM, or to be 10 μM, 2.50 μM, 0.62 μM, 0.156 μM, 39.1 nM, 9.8 nM, 2.4 nM, 0.61 nM, 0.15 nM, and 0.038 nM. After 15 minutes of incubation, ^33P-ATP (having an activity of 0.01 μCi/μl, and corresponding concentrations were given in Table 3) was added to start the reaction. Information about FGFR1, FGFR4 and their substrate's supplier, catalog number and lot number, as well as their concentration in the reaction solution, was listed in Table 3. […]

Data set [1] can be described thus: Pharmacokinetic investigation in dogs. It is filed as in vivo. Conditions: male, dog, plasma, beagle dogs; for AUC: read-out: Concentration integral AUC; for half-life: read-out: Half-life T1/2 (converted); for bioavailability: read-out: Bioavailability F. From the text:
The experiments aimed to test the pharmacokinetics of the test compound in beagle dogs.
Two beagle dogs were selected as one group. The compound was formulated into a designated preparation. The vehicle for intravenous injection was a mixture of DMSO: polyethylene glycol […] (PEG400): saline=10:40:50 (volume ratio) or a mixture of 10% DMSO/10% solutol/80% water. The vehicle for oral administration was a mixture of 0.5% methylcellulose (MC)+0.2% Tween. Each animal was given the preparation intragastrically at a predetermined dosage.
Whole blood samples, each about 500 μL, were collected from the cephalic vein or saphenous vein at […], namely 5 minutes, 15 minutes, 30 minutes, 1 hour, 2 hours, 4 hours, 6 hours, 8 hours, 12 hours and 24 hours after the animals were administered.
The […] was put into a centrifuge tube containing anticoagulant, and centrifuged at 3000 g for 10 min at 4° C. The plasma supernatant was frozen quickly on dry ice, and then kept in a frige at −70±10° C. until LC-MS/MS analysis was performed.
The plasma concentration of the compound was processed using a non-compartmental model by WinNonlin™ Version 6.3.0 (Pharsight, Mountain View, Calif.) pharmacokinetic software. The peak concentration (Cmax), time of maximum plasma concentration (Tmax), and time of the last quantifiable concentration, were determined directly from the curve of plasma concentration−time.
The following pharmacokinetic parameters: half-life time of elimination phase (T½), the mean residence time of the drug in the body from time 0 to the end timepoint (MRT0-last), the mean residence time of the drug in the body from time 0 to infinite time (MRT0-inf), area under the plasma concentration-time curve from time 0 to the end timepoint (AUC0-last), area under plasma concentration-time curve from time 0 to infinite time (AUC0-inf), were calculated using the log-linear trapezoidal method.
For the individual plasma concentration below the detection line, when it appeared before Tmax, it was calculated as 0; when it appeared after Tmax, it was directly excluded. All parameters and ratios were reported in the form of three significant figures.
In these experiments, the pharmacokinetic parameters were calculated based on the theoretical blood collection time and theoretical administration concentration in the embodiments.

The next data set has as its target T2, FGFR3 (V555M) (Homo sapiens, UniProt P22607, V555M).
T2 construct: purchased SignalChem F06-12GG
As to the kind of experiment: 33P isotope-labeled kinase activity assay, mutant FGFR3 (V555M). Format: biochemical. Conditions: ATP 20 μM. On the procedure: (§4) IC50 was determined by using ^33P isotope-labeled kinase activity assay (Reaction Biology Corp), to evaluate the inhibitory ability of the test compound against mutant FGFR.
(§5) Test procedures: At room temperature, test compound was dissolved in DMSO to prepare a 10 mM solution. The substrate was dissolved in a freshly prepared buffer, to which the test kinase was added and well mixed. By using acoustic technology (Echo 550), the solution of the test compound in DMSO was added into the well-mixed reaction solution, to allow a compound concentration in reaction solution to be 10 μM, 3.33 μM, 1.11 μM, 0.370 μM, 0.123 μM, 41.2 nM, 13.7 nM, 4.57 nM, 1.52 nM, 0.508 nM, or to be 10 μM, 2.50 μM, 0.62 μM, 0.156 μM, 39.1 nM, 9.8 nM, 2.4 nM, 0.61 nM, 0.15 nM, 0.038 nM. After 15 minutes of incubation, ^33P-ATP (having an activity of 0.01 μCi/μl, and corresponding concentrations were given in Table 5) was added to start the reaction. […] After washing the filter paper with a 0.75% phosphoric acid solution repeatedly, the radioactivity of the phosphorylated substrate left on the filter paper was measured. The kinase activity data was expressed by comparing the kinase activity of the test compound with that of blank group (containing DMSO only), and IC50 was determined by curve fitting with Prism4 software (GraphPad).

Another data set deals with T3, FGFR2 (E565G) (Homo sapiens, UniProt P21802, E565G).
T3 construct: purchased Signal Chem F05-12CG
As to the kind of experiment: 33P isotope-labeled kinase activity assay, mutant FGFR2 (E565G). Format: biochemical. Conditions: ATP 10 μM. On the procedure: as §4, §5

Another data set deals with T4, FGFR2 (V564F) (Homo sapiens, UniProt P21802, V564F).
T4 construct: purchased SignalChem F05-12FG
Description: 33P isotope-labeled kinase activity assay, mutant FGFR2 (V564F). Format: biochemical. Conditions: ATP 20 μM. On the procedure: as §4, §5

A further data set addresses T5, FGFR1 (V561M) (Homo sapiens, UniProt P11362, V561M).
T5 construct: purchased Signal Chem F04-13G
Description: 33P isotope-labeled kinase activity assay, mutant FGFR1 (V561M). Format: biochemical. Conditions: ATP 10 μM. As to the method: as §4, §5

The next data set deals with T6, FGFR3 (K650M) (Homo sapiens, UniProt P22607, K650M).
T6 construct: purchased Carna Biosciences Carna 08-199
Description: 33P isotope-labeled kinase activity assay, mutant FGFR3 (K650M). It is filed as biochemical. Conditions: ATP 2.5 μM. As to the method: as §4, §5

The next data set concerns the target T7, FGFR4 (N535K) (Homo sapiens, UniProt P22455, N535K).
T7 construct: purchased Carna Biosciences Carna 08-524
As to the kind of experiment: 33P isotope-labeled kinase activity assay, mutant FGFR4 (N535K). It is filed as biochemical. Conditions: ATP 2.5 μM. On the procedure:
as §4, §5

In another data set the target is T8, FGFR4 (V550M) (Homo sapiens, UniProt P22455, V550M).
T8 construct: purchased Signal Chem F07-12DG
As to the kind of experiment: 33P isotope-labeled kinase activity assay, mutant FGFR4 (V550M). Format: biochemical. Conditions: ATP 2.5 μM. On the procedure: as §4, §5

Another data set addresses T9, FGFR2 (N549H) (Homo sapiens, UniProt P21802, N549H).
T9 construct: purchased Millipore 14-742
Description: 33P isotope-labeled kinase activity assay, mutant FGFR2 (N549H). Format: biochemical. Conditions: ATP 50 μM. As to the method: as §4, §5

A further data set deals with T10, human FGFR4 (Homo sapiens, UniProt P22455).
T10 construct: purchased Invitrogen P3054
As to the kind of experiment: 33P isotope-labeled kinase activity assay, wild type FGFR4. Conditions: ATP 100 μM. It is filed as biochemical. On the procedure: as §1, §2, §3

Data set [2] can be described thus: Hygroscopicity by dynamic vapor sorption (DVS). Format: physicochemical. Conditions: 25° C. and 80% RH. As to the method:
Dynamic Vapor Sorption (DVS)
Test condition: Approximately 10-15 mg of sample was used for DVS detection.
Equilibrating dm/dt: 0.01%/min: (time: 10 min-180 min (maximum))
RH (%) measuring gradient: 10%
Range of RH (%) measuring gradient: 0%-90%-0%
The evaluation criteria was as follows:
SMS DVS Advantage dynamic vapor adsorption instrument
10-15 mg of the crystal form B of the compound of Formula (I) was taken and placed on a DVS sample pan for test.

The mark [3] stands for this setting: 1 mg/kg, intravenous administration (1 mpk).
Where [4] appears, read: 5 mg/kg, oral administration (5 mpk).

T6 sequence (P22607 23-806 K650M): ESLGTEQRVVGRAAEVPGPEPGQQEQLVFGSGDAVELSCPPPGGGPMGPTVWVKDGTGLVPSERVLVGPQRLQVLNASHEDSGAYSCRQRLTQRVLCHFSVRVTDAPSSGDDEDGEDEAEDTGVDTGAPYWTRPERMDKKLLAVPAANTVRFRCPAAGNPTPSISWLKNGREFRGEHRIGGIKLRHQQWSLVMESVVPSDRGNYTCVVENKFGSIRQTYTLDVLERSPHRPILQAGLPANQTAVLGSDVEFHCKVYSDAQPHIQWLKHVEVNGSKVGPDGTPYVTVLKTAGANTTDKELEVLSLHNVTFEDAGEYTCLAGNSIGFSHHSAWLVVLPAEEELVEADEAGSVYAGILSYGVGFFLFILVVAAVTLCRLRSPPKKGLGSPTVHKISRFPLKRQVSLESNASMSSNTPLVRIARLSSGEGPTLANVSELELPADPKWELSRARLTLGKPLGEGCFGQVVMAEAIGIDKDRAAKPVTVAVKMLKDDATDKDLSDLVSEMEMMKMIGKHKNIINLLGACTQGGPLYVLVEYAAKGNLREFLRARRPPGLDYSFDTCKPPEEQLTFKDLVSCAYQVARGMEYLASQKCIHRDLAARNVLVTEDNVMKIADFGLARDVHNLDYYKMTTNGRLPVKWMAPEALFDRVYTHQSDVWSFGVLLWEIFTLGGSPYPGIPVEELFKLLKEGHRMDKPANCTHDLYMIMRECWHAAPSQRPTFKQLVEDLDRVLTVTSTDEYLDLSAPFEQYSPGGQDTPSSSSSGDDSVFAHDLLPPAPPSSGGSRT
T1 sequence (P11362 22-822): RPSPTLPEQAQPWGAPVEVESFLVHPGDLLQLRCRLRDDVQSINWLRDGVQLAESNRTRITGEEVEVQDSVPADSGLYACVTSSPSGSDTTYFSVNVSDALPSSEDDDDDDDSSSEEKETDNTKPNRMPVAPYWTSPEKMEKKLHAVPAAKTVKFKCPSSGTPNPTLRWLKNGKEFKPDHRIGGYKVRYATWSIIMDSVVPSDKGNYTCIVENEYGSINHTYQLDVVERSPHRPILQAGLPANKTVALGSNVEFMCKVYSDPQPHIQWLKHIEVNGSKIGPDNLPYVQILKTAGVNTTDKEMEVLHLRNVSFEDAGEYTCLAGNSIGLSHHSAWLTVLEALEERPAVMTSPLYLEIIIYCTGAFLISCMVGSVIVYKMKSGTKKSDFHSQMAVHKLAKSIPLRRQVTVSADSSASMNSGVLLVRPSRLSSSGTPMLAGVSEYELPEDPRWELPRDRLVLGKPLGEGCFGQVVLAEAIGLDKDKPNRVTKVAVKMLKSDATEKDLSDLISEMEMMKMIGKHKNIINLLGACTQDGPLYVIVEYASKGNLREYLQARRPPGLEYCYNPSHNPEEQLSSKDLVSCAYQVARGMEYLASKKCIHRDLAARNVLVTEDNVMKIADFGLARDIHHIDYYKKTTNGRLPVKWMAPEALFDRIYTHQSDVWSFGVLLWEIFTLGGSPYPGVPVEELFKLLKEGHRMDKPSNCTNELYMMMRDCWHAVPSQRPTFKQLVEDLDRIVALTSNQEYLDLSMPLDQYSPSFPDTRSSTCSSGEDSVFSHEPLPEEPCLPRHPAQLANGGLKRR
T7 sequence (P22455 22-802 N535K): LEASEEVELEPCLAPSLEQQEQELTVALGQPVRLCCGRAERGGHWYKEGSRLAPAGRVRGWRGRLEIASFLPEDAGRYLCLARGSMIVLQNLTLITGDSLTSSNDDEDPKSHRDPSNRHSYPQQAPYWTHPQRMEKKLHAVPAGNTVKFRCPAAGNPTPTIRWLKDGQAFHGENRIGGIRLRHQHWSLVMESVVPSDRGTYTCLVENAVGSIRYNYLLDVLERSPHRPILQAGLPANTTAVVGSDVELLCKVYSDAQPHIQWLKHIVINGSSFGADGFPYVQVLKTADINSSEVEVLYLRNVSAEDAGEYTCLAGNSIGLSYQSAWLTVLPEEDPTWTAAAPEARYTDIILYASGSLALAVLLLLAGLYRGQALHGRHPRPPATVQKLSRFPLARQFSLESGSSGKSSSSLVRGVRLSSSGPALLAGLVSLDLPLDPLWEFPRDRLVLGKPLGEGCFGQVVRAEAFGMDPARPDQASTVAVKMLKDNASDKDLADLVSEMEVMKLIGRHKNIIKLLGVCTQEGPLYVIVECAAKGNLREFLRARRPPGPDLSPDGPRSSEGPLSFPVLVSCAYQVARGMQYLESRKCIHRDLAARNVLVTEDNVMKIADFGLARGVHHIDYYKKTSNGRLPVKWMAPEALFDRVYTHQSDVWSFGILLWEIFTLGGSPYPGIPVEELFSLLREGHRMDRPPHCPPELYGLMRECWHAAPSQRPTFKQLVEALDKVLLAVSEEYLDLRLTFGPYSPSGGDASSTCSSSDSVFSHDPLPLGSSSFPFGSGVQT
T4 sequence (P21802 22-821 V564F): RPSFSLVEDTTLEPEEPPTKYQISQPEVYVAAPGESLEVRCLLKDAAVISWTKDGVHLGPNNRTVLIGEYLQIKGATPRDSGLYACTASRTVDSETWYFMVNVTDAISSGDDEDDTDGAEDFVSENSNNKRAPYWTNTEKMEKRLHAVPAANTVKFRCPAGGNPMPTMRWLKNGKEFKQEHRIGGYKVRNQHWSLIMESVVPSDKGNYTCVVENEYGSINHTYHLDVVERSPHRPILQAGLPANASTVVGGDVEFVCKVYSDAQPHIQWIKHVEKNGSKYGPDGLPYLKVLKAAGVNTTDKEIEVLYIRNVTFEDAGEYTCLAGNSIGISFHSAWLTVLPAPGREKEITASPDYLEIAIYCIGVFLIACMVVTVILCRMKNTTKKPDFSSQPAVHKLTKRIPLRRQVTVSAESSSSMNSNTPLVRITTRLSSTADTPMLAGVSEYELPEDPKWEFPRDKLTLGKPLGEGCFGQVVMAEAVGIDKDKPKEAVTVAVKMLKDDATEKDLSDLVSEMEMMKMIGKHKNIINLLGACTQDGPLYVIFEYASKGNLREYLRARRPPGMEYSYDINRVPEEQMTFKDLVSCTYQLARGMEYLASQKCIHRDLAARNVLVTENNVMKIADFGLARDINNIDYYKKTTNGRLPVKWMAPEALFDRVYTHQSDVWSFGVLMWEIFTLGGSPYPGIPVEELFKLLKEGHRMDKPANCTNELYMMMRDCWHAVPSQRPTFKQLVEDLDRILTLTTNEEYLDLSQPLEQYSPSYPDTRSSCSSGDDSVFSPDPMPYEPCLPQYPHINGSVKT
T2 sequence (P22607 23-806 V555M): as the sequence (P22607 23-806 K650M) above, with V533M, M628K counted along it
T10 sequence (P22455 22-802): as the sequence (P22455 22-802 N535K) above, with K514N counted along it
T9 sequence (P21802 22-821 N549H): as the sequence (P21802 22-821 V564F) above, with N528H, F543V counted along it
T3 sequence (P21802 22-821 E565G): as the sequence (P21802 22-821 V564F) above, with F543V, E544G counted along it
T5 sequence (P11362 22-822 V561M): as the sequence (P11362 22-822) above, with V540M counted along it
T8 sequence (P22455 22-802 V550M): as the sequence (P22455 22-802 N535K) above, with K514N, V529M counted along it

One may read the IC50 as the concentration at which inhibition is half-maximal. The low end stands for inhibition by little substance, the high end for a need for much substance. Broadly, the clearance is the rate of elimination divided by the concentration. A high value points to efficient removal. One may read the bioavailability as the share of a dose that reaches the circulation, judged against a reference dose that is usually intravenous. In the case of `C=CC(=O)N1CC[C@H](c2cc(-c3cc4cc(C)cc(OC)c4s3)c3c(N)ncnn23)C1` [compound represented by Formula (I)], the IC50 on human FGFR1 came out at 0.2 nM; against FGFR3 (V555M), 7.3 nM; against FGFR2 (E565G) it was 0.1 nM; on FGFR2 (V564F), 33 nM; on FGFR1 (V561M), 38 nM; at FGFR3 (K650M) it was 0.2 nM. Besides, the IC50 against FGFR4 (N535K) stood at 34 nM; at FGFR4 (V550M), 5.6 nM; at FGFR2 (N549H), 0.5 nM; against human FGFR4, 0.2 nM. The same molecule returned a clearance in [1] (setting [3]) of 9.4 mL/min/kg. The AUC was 4.13 µM·h in data set [1] (setting [3]) and 18.2 µM·h in data set [1] (setting [4]). Besides, the half-life in data set [1] (setting [3]) was 3 h. For the same molecule, the bioavailability in [1] (setting [4]) was found to be 88%.

Take `C=CC(=O)N1CC[C@H](n2nc(C#Cc3cc(OC)cc(OC)c3)c3c(N)ncnc32)C1` [reference compound 1, reference compound]: in data set [1] (setting [3]), the clearance is 17 mL/min/kg and the half-life is 0.8 h. Moreover, in [1] (setting [4]), the bioavailability was determined as 41%.

With `C=CC(=O)N1CC[C@H](c2cc(-c3cc4cc(C)cc(OC)c4s3)c3c(N)ncnn23)C1`, in data set [2], the hygroscopicity classification entry is recorded as “no or almost no hygroscopicity (weight gain caused by moisture is less than 0.2%.)” and the “weight gain caused by moisture-adsorption ΔW” value came out at 0.1928%.
